Values of other authors in patent US20220308074A1, “QUANTIFICATION METHOD OF VITAMIN D DERIVATIVE, ENZYME FOR QUANTIFICATION, COMPOSITION FOR QUANTIFICATION, KIT FOR QUANTIFICATION, ELECTRODE, SENSOR CHIP, AND SENSOR” (KIKKOMAN CORPORATION, priority 2019, published 2022).
Like-named read-outs stand apart in the source and are kept apart here.

Substance: 1,25-dihydroxyvitamin D
- half-life in the blood (blood): about 15 hours

Substance: 25-hydroxyvitamin D
- half-life in the blood (in vivo): 2-3 weeks
